Experimental data: patent US20210246128A1, “BICYCLE TOPOISOMERASE I INHIBITING COMPOUNDS, PROCESS FOR PREPARATION AND USE THEREOF” (Council of Scientific & Industrial Research, priority 2018, published 2021)
Converted amounts (≈) assume the structure as drawn. Where two headings read alike, the source gives them in different places.

Columns and labels:
[1] = target: T1, recombinant human TopI (HTopI) (Homo sapiens, UniProt P11387); assay: Gel based plasmid DNA relaxation assay with recombinant TopI (in vitro); type: biochemical; conditions: recombinant human TopI; for IC50: plasmid DNA relaxation
T1 sequence (P11387 1-765): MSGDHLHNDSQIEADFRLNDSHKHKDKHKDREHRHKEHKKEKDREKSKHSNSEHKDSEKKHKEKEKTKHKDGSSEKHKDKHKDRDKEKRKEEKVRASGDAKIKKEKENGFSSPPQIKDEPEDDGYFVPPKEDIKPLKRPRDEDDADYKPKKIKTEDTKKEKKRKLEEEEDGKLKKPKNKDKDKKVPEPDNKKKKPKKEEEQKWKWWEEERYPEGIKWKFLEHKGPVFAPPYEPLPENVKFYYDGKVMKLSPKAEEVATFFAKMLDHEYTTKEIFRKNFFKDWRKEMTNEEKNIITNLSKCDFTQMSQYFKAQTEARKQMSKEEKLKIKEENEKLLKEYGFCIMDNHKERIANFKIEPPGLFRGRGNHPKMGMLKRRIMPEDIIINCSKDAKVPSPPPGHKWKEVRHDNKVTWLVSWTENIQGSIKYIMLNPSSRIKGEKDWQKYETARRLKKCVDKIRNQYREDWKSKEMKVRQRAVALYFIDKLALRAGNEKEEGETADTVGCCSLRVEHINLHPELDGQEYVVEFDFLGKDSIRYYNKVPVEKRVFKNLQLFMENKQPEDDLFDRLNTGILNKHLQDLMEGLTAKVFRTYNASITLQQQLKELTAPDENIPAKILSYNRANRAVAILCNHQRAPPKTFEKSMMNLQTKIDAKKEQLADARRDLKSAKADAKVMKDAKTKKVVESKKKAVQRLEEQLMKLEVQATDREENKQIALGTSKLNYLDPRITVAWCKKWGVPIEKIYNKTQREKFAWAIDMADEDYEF
Description: (§1) Human ToPI Inhibition in Plasmid DNA Relaxation Assays with Recombinant TopI (In Vitro) or MCF7 Cell Lysates (Ex Vivo)
(§2) Relaxation of supercoiled pBSSK(^+) DNA with recombinant human TopI (HTopI) at a molar ratio of 3:1 at 37° C. for 30 minutes was performed

[2] = Lipophilicity assay (octanol/buffer Log D); conditions: n-octanol/sodium phosphate buffer, pH 7.4
Description: 1.56 g NaH2PO4.2H2O was dissolved in 0.5 L water in a 1 L beaker. After adjusting pH to 7.4 using NaOH solution, the volume was made up to 1 L. Equal volumes of sodium phosphate buffer (10 mM, pH 7.4) and n-octanol were added to a separation funnel and mixed thoroughly by shaking and inverting the funnel several times. The two layers were allowed to separate for 2 days and then dispensed in two separate glass bottles. 10 mM stock solution was prepared in 100% DMSO and stored at 4° C. 500 μL of organic phase (1-octanol) was added to each well of a 2 mL deep well plate, followed by 500 μL of buffer and 15 μL of test substance was added. The plate was vortexed for 1 hr on a plate shaker at 1200 rpm. After incubation, the samples were allowed to equilibrate for 20 min and then centrifuged at 4000 rpm for 30 min for complete phase separation and analysed by LC-UV.
Log D=Log(area of octanol/area of buffer)
Mean, SD and % CV for each set of triplicates were calculated

[3] = Solubility assay (pH 7.4 pION buffer, UV); type: physicochemical; conditions: pH 7.4 pION buffer, aqueous buffer, kinetic from dmso stock; pH 7.4 buffer, 18 hours incubation; read-out: Avg. Solubility (μg/mL) at pH 7.4
Description: 5 μL of 20 mM DMSO stock from the stock plate was added to the reaction deep well plate containing 495 μL of pH 7.4 pION buffer (including DMSO control) respectively and the samples were mixed and incubated for 18 hours. The plate was sealed well during the incubation process. The DMSO content in the sample was <1.0%. The concentration in deep well plates was 200 μM. 4 μL of 20 mM stock (including DMSO control) was added to 996 μL of acetonitrile to prepare the working stock plate. 75 μL of working stock was added to 75 μL of blank buffer and read on spectrophotometer as reference plate at 240 nm. At the end of the incubation period, 100 μL of sample from storage plate was vacuum filtered using a filter plate. This step wets the filters and the filtrate was discarded. Another 200 μL of the sample from deep well plate was vacuum filtered in to a new filter collection plate. 75 μL of the filtrate from the filter collection plate was transferred to a UV sample plate. 75 μL of acetonitrile was added to this UV plate. The solution was mixed and the spectrum was read using the UV spectrophotometer at 240 nm. Plates were read on spectramax using SoftMax Pro software version 5.3.

Plasma stability assay = type: in vitro ADME; conditions: pH 7.4, 37° C., 1 μM
Description: The stock solution of 10 mM of test compound in DMSO was prepared and stored at 4° C. 25 μM stock of test compound was prepared in acetonitrile: water by diluting from 10 mM stock (i.e. 2.5 μL of 10 mM stock solution was added to 997.5 μL of acetonitrile: water (50:50). The frozen plasma was thawed at room temperature and centrifuged at 1400×RCF (relative centrifugal force) 4° C., for 15 minutes. Approximately 90% of the clear supernatant fraction was transferred to a separate tube and was used for the assay.
For 0 min samples, plasma was heat inactivated at 56° C. for 45 min. To 72 μL of heat inactivated plasma, 3 μL of 25 μM test compound was added. A 25 μL aliquot of the mixture was taken and crashed with 200 μL of acetonitrile containing internal standard and further processed along with other time points. For other time point samples, final working stock of 1 μM was prepared by diluting in plasma (i.e. 8 μL of 25 μM acetonitrile:water stock was added to 192 μL of plasma). 200 μL of plasma containing the test compound was incubated for 2 hrs at 37° C. in shaker water bath with gentle shaking. 25 μL aliquot of sample at 0, 15, 30, 60 and 120 min was precipitated immediately with 200 μL of acetonitrile containing internal standard and centrifuged at 4000×RCF, 4° C. for 20 minutes. 150 μL of supernatant was diluted with 150 μL of water and analyzed on LC-MS/MS.

[4] = target: T2, endogenous TopI from the whole cell extracts of human breast adenocarcinoma (MCF7) cell (Homo sapiens, UniProt P11387); assay: Plasmid DNA relaxation assay with MCF7 cell lysates (ex vivo); type: biochemical; conditions: MCF7 cell lysates as source of TopI
T2 construct: TopI enzyme in the extract is conserved in its native structure among a plethora of other cellular proteins; endogenous in cells; host or cells: MCF7 whole cell extract
T2 sequence (P11387 1-765): T1 sequence (P11387 1-765)
Description: as §1, §2
cellular extracts were utilized as a source of TopI (ex vivo) in plasmid DNA relaxation assays. TopI enzyme in the extract is conserved in its native structure among a plethora of other cellular proteins.

[5] = Caco-2 permeability (21 day culture of Caco-2 cell monolayer); type: in vitro ADME; conditions: human; for efflux ratio at 120 min, 10 μM: Caco-2, pH 7.4; for recovery at 120 min, 10 μM: Caco-2, pH 7.4, Caco-2; for Papp A→B at 120 min, 10 μM / Papp B→A at 120 min, 10 μM: pH 7.4, Caco-2, 10 μM; for Papp A→B at 120 min, 10 μM: read-out: Papp Apical to Basal; for Papp B→A at 120 min, 10 μM: read-out: Papp Basal to Apical
Description: 5 mL of 100 mM sodium pyruvate, 5 mL of 10× non-essential amino acids, 5 mL of penstrep were added to 100 mL of heat inactivated foetal bovine serum to 385 mL of DMEM aseptically and mixed thoroughly. One vial of Hank's balanced salt (Sigma-H1387) was dissolved in 900 mL of milli Q water; adjusted the pH to 7.4 and made up the volume to 1000 mL with the same. The solution was filter sterilized and stored at 4° C. Stock solution of test compound (10 mM) was prepared in DMSO. 10 mM stock was diluted with HBSS Buffer to a final concentration of 10 μM.
250 μL of DMEM was added to the basal compartment of 96 well multi-screen Caco-2 plate and seeded 12000 cells/well (0.16×10^6 cells/ml) in all the apical wells required and one well with only media as blank without cells, placed the Caco-2 plate in CO2 incubator at 37° C. for proliferation of cells.
On the day of assay, medium was removed and washed twice with HBSS Buffer and incubated with HBSS buffer for 30 min in an incubator and wells with TEER values >230 ohm·cm^2 were selected for the incubation. 75 μL of test compound was added to apical wells and 250 μL of HBSS buffer with 2% BSA was added to basal wells. 25 μL of basal samples was collected at 120 min and processed as stated below.
250 μL of test compound was added to basal wells and 75 μL of HBSS buffer with 2% BSA was added to apical wells. 25 μL of apical samples was collected at 120 min and processed as stated below.
Single point calibration curve in HBSS buffer with 2% BSA was used. Donor samples were diluted 1:1 with HBSS containing 2% BSA and receiver samples were diluted with 1.1 HBSS buffer and precipitated with 200 μL of acetonitrile containing internal standard and vortexed for 5 min @ 1000 rpm, centrifuged at 4000 rpm for 10 min. Finally 100 μL of supernatant was diluted with 200 μL of water and submitted for LC-MS/MS analysis.

calf thymus (CT) DNA = assay: Ethidium bromide (EtBr) displacement assay; type: binding; conditions: 1 μM EtBr, 5 nM CT DNA, 0-200 μM compound

For `COc1ccc(-c2ccc3ncc(-c4nnco4)c(NCCN4CCOCC4)c3c2)cc1OC` [Compound 8, 6-(3,4-dimethoxyphenyl)-N-(2-morpholinoethyl)-3-(1,3,4-oxadiazol-2-yl)quinolin-4-amine], the melting point was 116 °C.
With `COc1ccc(-c2ccc3ncc(-c4nnco4)c(NCCN4CCOCC4)c3c2)cc1` [Compound 9, 6-(4-methoxyphenyl)-N-(2-morpholinoethyl)-3-(1,3,4-oxadiazol-2-yl)quinolin-4-amine] the melting point was 156 °C and the inhibition at 10 µM ([1]; at 10 μM, read-out: In vitro inhibition at 10 μM) was 45%.
Work on `Cc1ccc(-c2ccc3ncc(-c4nnco4)c(NCCN4CCOCC4)c3c2)cc1[N+](=O)[O-]` [Compound 10, 6-(4-methyl-3-nitrophenyl)-N-(2-morpholinoethyl)-3-(1,3,4-oxadiazol-2-yl)quinolin-4-amine] yielded a melting point of 222 °C.
With `N#Cc1ccc(-c2ccc3ncc(-c4nnco4)c(NCCN4CCOCC4)c3c2)cc1` [Compound 11, 4-(4-(2-morpholinoethylamino)-3-(1,3,4-oxadiazol-2-yl)quinolin-6-yl)benzonitrile] the melting point was 190 °C.
With `c1cncc(-c2ccc3ncc(-c4nnco4)c(NCCCn4ccnc4)c3c2)c1` [Compound 30, N-(3-(1H-imidazol-1-yl)propyl)-3-(1,3,4-oxadiazol-2-yl)-6-(pyridin-3-yl)quinolin-4-amine] the logD [2] was 3.54, the solubility at 18 h [3] was 44 µg/mL (≈ 111 µM) and the “Mean % remaining at 2 hrs in human Plasma” value (Plasma stability assay) was 14.62%. For the same compound, the IC50 [4] was 1250 nM, the IC50 [1] was 397 nM and the efflux ratio at 120 min, 10 μM [5] was 40. The recovery at 120 min, 10 μM ([5]; read-out: A to B % Recovery) was 84.8%, the recovery at 120 min, 10 μM ([5]; read-out: B to A % Recovery) was 74.2% and the Papp A→B at 120 min, 10 μM [5] was 0.95 ×10⁻⁶ cm/s. It also gave a Papp B→A at 120 min, 10 μM [5] of 38.3 ×10⁻⁶ cm/s.
In the case of `COc1ccc(-c2ccc3ncc(-c4nnco4)c(NCCCn4ccnc4)c3c2)cn1` [Compound 33, N-(3-(1H-imidazol-1-yl)propyl)-6-(6-methoxypyridin-3-yl)-3-(1,3,4-oxadiazol-2-yl)quinolin-4-amine], the logD [2] is reported as 2.79, the solubility at 18 h [3] is reported as 27.9 µg/mL (≈ 65.4 µM) and the “Mean % remaining at 2 hrs in human Plasma” value (Plasma stability assay) is reported as 102.28%. For the same compound, the IC50 [4] was 625 nM, the IC50 [1] was 17 nM and the efflux ratio at 120 min, 10 μM [5] was 4.01. For the same compound, the recovery at 120 min, 10 μM ([5]; read-out: A to B % Recovery) was 83.9%, the recovery at 120 min, 10 μM ([5]; read-out: B to A % Recovery) was 92% and the Papp A→B at 120 min, 10 μM [5] was 7.89 ×10⁻⁶ cm/s. It also gave a Papp B→A at 120 min, 10 μM [5] of 31.5 ×10⁻⁶ cm/s.
Work on `COc1cccc(-c2ccc3ncc(-c4nnco4)c(NCCCn4ccnc4)c3c2)c1` [Compound 82, N-(3-(1H-Imidazol-1-yl)propyl)-6-(3-methoxyphenyl)-3-(1,3,4-oxadiazol-2-yl)quinolin-4-amine] yielded a melting point of 96 °C, an IC50 [4] of 4110 nM and an IC50 [1] of 1050 nM.
For `COc1cc([C@@H]2c3cc4c(cc3[C@@H](O[C@@H]3O[C@@H]5CO[C@@H](C)O[C@H]5[C@H](O)[C@H]3O)[C@H]3COC(=O)[C@H]23)OCO4)cc(OC)c1O` [etoposide], the “displacement of bound EtBr (DNA intercalation)” value (calf thymus (CT) DNA) was “unable to displace EtBr”.
With `COc1cc(NS(C)(=O)=O)ccc1Nc1c2ccccc2nc2ccccc12` [m-AMSA] the “displacement of bound EtBr (DNA intercalation)” value (calf thymus (CT) DNA) was “capability to dislodge the bound fluorophore (EtBr) at 50 μM concentration”.
